The record followed here is patent US9883999B2, “Method for solubilizing rutin with polyhydroxy alkyl alcohols” (Colgate-Palmolive Company, priority 2013, dated 2018).

The test system of data set [1] is exfoliated human oral mucosal cells. The data set is described as follows: Protective (anti-oxidation) efficacy of rutin solutions by cell staining method (Janus Green B, H2O2/Fe2+ challenge). It counts as cell-based. To be noted: larger ΔE*a,b = stronger protection. As to the method: Rutin is dissolved in water to prepare a range of different levels of rutin solution. The protective efficacy of rutin solutions is measured using a cell staining method. In this method, the morphology of exfoliated human oral mucosal cells contacted with various concentrations of rutin is disclosed with Janus Green B dye. Photographic digital images are obtained using a light microscope with a 40× or 100× objective lenses connected to a digital camera. The color difference between the cell plasma and the area outside the cell, ΔE*a,b, is determined using the CIE L*a*b* system. The larger the ΔE*a,b value, the stronger the protective efficacy. The method includes the following steps: • 1. Human mucosal cells are collected and mixed with 1 mL Ringer solution, 0.5 mL Fe^2+ and 0.5 mL HAc—Ac buffer in a 5 mL Eppendorf tube. • 2. The cell suspension is then equally divided into two tubes. To the first tube is added 0.2 mL of 20 mM H2O2. To the second tube is added 0.2 mL Ringer solution. • 3. After 10 min, one drop of the above treated samples is placed on a microscope slide and stained with one drop of 0.1% Janus Green B for 1 h or longer. • 4. After staining, the cells are observed under the light microscope. Digital images are also acquired and ΔE*a, b is measured.

A short description of data set [2]: Initial evaluation of solubilizing agents for rutin by relative clarity of the solutions. Conditions: 0.5% rutin added to 10 g of each test solubilizer; propylene glycol best, sorbitol worst. It counts as physicochemical.

Consider `C[C@@H]1O[C@@H](OC[C@H]2O[C@@H](Oc3c(-c4ccc(O)c(O)c4)oc4cc(O)cc(O)c4c3=O)[C@H](O)[C@@H](O)[C@@H]2O)[C@H](O)[C@H](O)[C@H]1O` [rutin, 2-(3,4-dihydroxyphenyl)-5,7-dihydroxy-3-[α-L-rhamnopyranosyl-(1→6)-β-D-glucopyranosyloxy]-4H-chromen-4-one], for which the “Protective efficacy (ΔE*a, b)” value worked out at 5.5 in data set [1] (rutin concentration 0.5 mM in water), 24.7 in data set [1] (rutin concentration 1.0 mM in water) and 38.9 in data set [1] (rutin concentration 2.0 mM in water). Moreover, the “solubility capability of the humectants, ranked” value in data set [2] was “propylene glycol>>glycerin>PEG600≈PEG-40 hydrogenated castor oil>sorbitol”.
